Test results: patent publication US10519113B2, “Kinase inhibitor compounds, compositions, and methods of treating cancer” (ICAHN SCHOOL OF MEDICINE AT MOUNT SINAI, priority 2016, dated 2019)
“Also recorded” adds a separate entry of the source.

Key:
ptc>dRet^M955T flies [1] = assay: fly rough eye phenotype; settings: APS6-45 100 μM, AD80 100 μM
[2] = system: dRet^M955T-expressing wing cells; assay: in vivo cell migration assay in developing wing discs; settings: for ptc>dRet^M955T-mediated EMT and cell migration/invasion: wing discs of ptc>dRet^M955T larvae; for effect of reduced Lk6 on suppression of cell migration by compound: 765>dRet^M955T
Description: For in vivo cell migration assays, third-instar larvae were dissected to collect developing wing discs. After fixation with 4% paraformaldehyde in PBS, discs were whole-mounted and observed for dRet^M955T-expressing cells labeled with GFP under a confocal microscope. At least 20 wing discs were studied for each genotype or treatment. Phospho-Src was stained with anti-Src(pY418) antibody (Invitrogen).
In addition to directing late lethality, the ptc>dRet^M955T transgenes targeted dRet^M955T expression to a stripe of cells at the midline of the developing wing disc epithelium; cells were visualized with an included UAS-GFP transgene.

ptc>dRet^M955T flies [3] = assay: rescue-from-lethality assay in ptc>dRet^M955T flies (drug screening); assay type: in vivo, Drosophila; settings: drug in fly food, 25° C.
765>dRet^M955T flies = assay: wing venation assay in adult flies; settings: for ectopic wing venation in 765>dRet^M955T flies: doses tested
Description: More than 15 adult wings were scored for abnormal wing venation.

human BRAF = target: T1, human BRAF (Homo sapiens, UniProt P15056); assay: Kd measurement (KINOMEscan bead based competition assay), BRAF; settings: in vitro binding assay
T1 construct: phage display fusion (kinase expressed on phage); purchased DiscoverX (KINOMEscan service); host or cells: phage
Procedure: Kd values were determined by DiscoverX using a bead based competition assay (KINOMEscan). In brief, kinases were expressed on phage and immobilized on beads via active site-directed ligands. Test compounds were premixed with kinases and assayed for the ability to compete for immobilized ligands. Binding constants were calculated with a standard dose-response curve and the Hill equation, with Hill slope set to −1. […] Kd values and s.e.m. are the average of two biological replicates.

human RET = target: T2, human RET (Homo sapiens, UniProt P07949); assay: Kd measurement (KINOMEscan bead based competition assay), RET; assay type: binding; settings: cell-free in vitro
T2 construct: phage display fusion (kinase expressed on phage); purchased DiscoverX (KINOMEscan service); host or cells: phage
Procedure: (§1) Kd values were determined by DiscoverX using a bead based competition assay (KINOMEscan). In brief, kinases were expressed on phage and immobilized on beads via active site-directed ligands. Test compounds were premixed with kinases and assayed for the ability to compete for immobilized ligands. Binding constants were calculated with a standard dose-response curve and the Hill equation, with Hill slope set to −1. […] For each sorafelog-kinase pair, an 11-point series ranging from 30,000 to 0.5 nM, in 3-fold dilutions, were used to derive Kd values. Kd values and s.e.m. are the average of two biological replicates.

MKNK1 = target: T3, MKNK1 (Homo sapiens, UniProt Q9BUB5); assay: Kd measurement (KINOMEscan bead based competition assay), MKNK1; assay type: binding; settings: in vitro
T3 construct: phage display fusion (kinase expressed on phage); purchased DiscoverX (KINOMEscan service); host or cells: phage
Procedure: as §1

TT human MTC cells = assay: soft agar colony formation assay; assay type: cell-based; settings: colonies at three weeks
Description: Imaged with ×40. […] Error bars, standard errors in triplicate.

[4] = pharmacokinetics assay in mice (clinical signs); assay type: in vivo, mouse; settings: male ICR mice, 20 mg/kg orally
Procedure: Phamacokinetics assays for APS6-45 were performed by Medicilon Preclinical Research (Shanghai, China). 20 mg/kg of APS6-45 was dosed orally to male ICR mice (5-6 weeks of age), and its plasma concentrations were determined at 0.25, 0.5, 1, 2, 4, 8, 10, and 24 hours post dosing.

TT cell tumors = assay: TT cell xenograft assay in nude mice; assay type: in vivo, mouse; settings: 10 mg/kg/day p.o.
Procedure: FIGS. 66C-E illustrate the effectiveness of the oral administration of APS6-45 to mice with xenografts. […] Dosing (10 mg/kg/day each) was started on day 0 after establishing TT cell tumors (˜120 mm^3) subcutaneously in nude mice. Error bars, standard errors (n=10). Cabo, cabozantinib; soraf, sorafenib. […] FIG. 66D and FIG. 67 illustrate Waterfall plots showing percent changes in tumor volume on day 30 relative to pretreatment baselines. Each bar represents a single animal. […] Asterisk, complete response. Two mice were lost during the course of the experiment due to unknown causes. Administration of APS6-45 had no effect on mouse body weight as illustrated in FIG. 66E (same legend as FIG. 66C).
Xenograft assays were also performed by Washington Biotechnology. 40 female nude mice (5-6 weeks) were implanted subcutaneously with TT cells. […]

RET(M918T) = target: T4, RET(M918T) (Homo sapiens, UniProt P07949, M918T); assay: Kd measurement (KINOMEscan bead based competition assay), RET(M918T); assay type: binding; settings: in vitro
T4 construct: phage display fusion (kinase expressed on phage); purchased DiscoverX (KINOMEscan service); host or cells: phage
Procedure: as §1

toleration assay in mice = assay type: in vivo, mouse; settings: female athymic nude mice, oral doses escalated from 0.1 up to 160 mg/kg/day
Procedure: Toleration assays for APS6-45 were performed by Washington Biotechnology (Baltimore, Md.). Briefly, five female athymic nude mice (5-6 weeks) were administered with increasing oral doses of APS6-45 starting at 0.1 mg/kg/day and observed for 2 days for signs of clinical distress such as weight loss, discharges, and morbidity.

EPH = assay: kinase percent inhibition measurement, EPH; assay type: biochemical, human; settings: cell-free kinase inhibition assay, compounds screened at 1 μM
Procedure: (§2) The sorafelogs were assayed against a panel of purified human kinases (ThermoFisher) to measure percentage inhibition values and derive kinome profiles (FIG. 61). All compounds were screened at 1 μM, using two biological replicates to determine percent inhibition values. Detailed procedures for kinase reactions and assay formats are described at www.thermofisher.com/kinaseprofiling.

ptc>dRet^M955T flies [5] = assay: kinome genetic modifier screening of ptc>dRet^M955T flies in the presence of drug; assay type: in vivo, Drosophila
FRK = target: T5, FRK (Homo sapiens, UniProt P42685); assay: kinase percent inhibition measurement, FRK; assay type: biochemical; settings: cell-free kinase inhibition assay, compounds screened at 1 μM
T5 construct: purchased ThermoFisher
Procedure: as §2

non-oncogenic w^- flies = assay: whole-body toxicity in control, non-transformed flies; assay type: in vivo, Drosophila; settings: fed to control

T1 sequence (P15056 whole entry, the tested form may be a part): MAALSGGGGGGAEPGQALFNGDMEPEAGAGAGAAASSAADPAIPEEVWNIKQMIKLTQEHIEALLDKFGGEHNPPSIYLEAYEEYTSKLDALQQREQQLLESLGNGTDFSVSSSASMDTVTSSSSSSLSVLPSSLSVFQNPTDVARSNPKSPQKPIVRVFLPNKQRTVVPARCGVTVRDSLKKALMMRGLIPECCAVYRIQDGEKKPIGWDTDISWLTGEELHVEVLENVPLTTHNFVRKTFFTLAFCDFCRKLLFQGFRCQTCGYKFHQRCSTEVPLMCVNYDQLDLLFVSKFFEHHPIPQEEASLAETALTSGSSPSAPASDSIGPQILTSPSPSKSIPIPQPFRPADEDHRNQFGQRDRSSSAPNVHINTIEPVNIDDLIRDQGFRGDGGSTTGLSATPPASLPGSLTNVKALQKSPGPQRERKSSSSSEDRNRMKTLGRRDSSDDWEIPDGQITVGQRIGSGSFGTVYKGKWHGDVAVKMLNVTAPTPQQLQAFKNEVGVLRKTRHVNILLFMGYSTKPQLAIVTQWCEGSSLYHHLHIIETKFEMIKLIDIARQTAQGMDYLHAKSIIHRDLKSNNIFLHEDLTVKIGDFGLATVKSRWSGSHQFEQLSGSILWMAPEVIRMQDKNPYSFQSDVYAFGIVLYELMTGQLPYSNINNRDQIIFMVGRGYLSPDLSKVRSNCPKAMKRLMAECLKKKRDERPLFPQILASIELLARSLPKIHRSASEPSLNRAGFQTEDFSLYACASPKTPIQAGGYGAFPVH
T2 sequence (P07949 29-1114): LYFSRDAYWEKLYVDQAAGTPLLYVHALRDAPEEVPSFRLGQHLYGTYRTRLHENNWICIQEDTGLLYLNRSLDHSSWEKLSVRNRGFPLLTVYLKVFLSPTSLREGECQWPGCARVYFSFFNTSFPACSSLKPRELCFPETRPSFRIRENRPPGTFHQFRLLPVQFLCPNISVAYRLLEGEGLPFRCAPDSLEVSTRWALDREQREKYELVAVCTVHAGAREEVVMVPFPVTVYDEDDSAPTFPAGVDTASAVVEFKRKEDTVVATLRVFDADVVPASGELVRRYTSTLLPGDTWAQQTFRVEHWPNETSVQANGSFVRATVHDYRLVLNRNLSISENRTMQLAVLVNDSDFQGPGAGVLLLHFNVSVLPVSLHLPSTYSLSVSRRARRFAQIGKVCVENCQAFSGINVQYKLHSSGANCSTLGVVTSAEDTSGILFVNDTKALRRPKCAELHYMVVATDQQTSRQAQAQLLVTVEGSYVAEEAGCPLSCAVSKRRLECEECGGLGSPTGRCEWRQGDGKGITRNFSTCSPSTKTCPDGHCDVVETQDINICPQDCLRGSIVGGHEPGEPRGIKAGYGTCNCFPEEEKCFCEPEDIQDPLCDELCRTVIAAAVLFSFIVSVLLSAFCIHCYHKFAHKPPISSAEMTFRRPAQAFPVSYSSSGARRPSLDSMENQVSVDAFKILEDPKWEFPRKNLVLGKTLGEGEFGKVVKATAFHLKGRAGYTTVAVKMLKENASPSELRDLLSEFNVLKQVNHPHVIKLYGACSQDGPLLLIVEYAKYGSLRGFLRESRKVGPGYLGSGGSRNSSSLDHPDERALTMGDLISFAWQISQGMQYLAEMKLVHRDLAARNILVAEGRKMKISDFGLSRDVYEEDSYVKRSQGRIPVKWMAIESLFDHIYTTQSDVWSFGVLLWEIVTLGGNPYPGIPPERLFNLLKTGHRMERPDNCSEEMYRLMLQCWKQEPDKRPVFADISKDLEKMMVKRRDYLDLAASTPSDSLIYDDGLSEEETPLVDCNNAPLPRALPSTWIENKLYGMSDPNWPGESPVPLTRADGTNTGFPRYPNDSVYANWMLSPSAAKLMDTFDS
T3 sequence (Q9BUB5 whole entry, the tested form may be a part): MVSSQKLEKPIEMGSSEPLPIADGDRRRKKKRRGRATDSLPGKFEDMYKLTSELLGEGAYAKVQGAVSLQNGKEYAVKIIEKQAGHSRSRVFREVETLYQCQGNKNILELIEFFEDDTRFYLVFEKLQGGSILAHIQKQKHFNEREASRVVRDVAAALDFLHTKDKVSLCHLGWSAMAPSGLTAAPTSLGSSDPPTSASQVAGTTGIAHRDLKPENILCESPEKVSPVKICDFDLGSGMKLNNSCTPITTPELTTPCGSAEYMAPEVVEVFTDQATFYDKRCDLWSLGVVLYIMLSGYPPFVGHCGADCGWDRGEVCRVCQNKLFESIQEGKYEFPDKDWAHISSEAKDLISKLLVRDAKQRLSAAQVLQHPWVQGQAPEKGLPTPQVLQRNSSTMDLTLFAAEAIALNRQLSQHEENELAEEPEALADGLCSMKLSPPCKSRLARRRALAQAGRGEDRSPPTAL
T4 sequence (P07949 29-1114 M918T): as the sequence (P07949 29-1114) above, with M890T counted along it
T5 sequence (P42685 whole entry): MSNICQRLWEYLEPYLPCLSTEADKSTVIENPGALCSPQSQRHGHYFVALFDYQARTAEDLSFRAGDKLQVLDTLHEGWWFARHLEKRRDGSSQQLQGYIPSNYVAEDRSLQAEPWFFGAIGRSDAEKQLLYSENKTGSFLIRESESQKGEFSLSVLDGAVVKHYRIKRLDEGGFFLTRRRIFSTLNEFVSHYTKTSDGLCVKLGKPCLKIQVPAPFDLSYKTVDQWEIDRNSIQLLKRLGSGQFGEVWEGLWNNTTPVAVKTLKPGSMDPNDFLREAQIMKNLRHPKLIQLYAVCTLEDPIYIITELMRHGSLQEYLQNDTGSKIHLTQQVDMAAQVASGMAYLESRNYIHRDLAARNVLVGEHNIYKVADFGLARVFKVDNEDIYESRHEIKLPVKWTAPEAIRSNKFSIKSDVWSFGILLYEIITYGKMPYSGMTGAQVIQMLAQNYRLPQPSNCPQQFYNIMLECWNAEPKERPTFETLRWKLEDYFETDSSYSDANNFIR

With `CC(C)n1nc(-c2ccc(NC(=O)Nc3cc(C(F)(F)F)ccc3F)cc2)c2c(N)ncnc21` [AD80, reference compound] the rough eye phenotype (ptc>dRet^M955T flies [1]) was “did not”.
In the case of `CNC(=O)c1cc(Oc2ccc(NC(=O)Nc3cc(C(F)(F)F)ccc3F)c(F)c2)ccn1` [APS3-69-1, 4-(3-Fluoro-4-(3-(2-fluoro-5-(trifluoromethyl)phenyl)ureido)phenoxy)-N-methylpicolinamide], the “ptc>dRet^M955T-mediated EMT and cell migration/invasion” value [2] is reported as “strongly suppressed”.
With `CNC(=O)c1cc(Oc2ccc(NC(=O)Nc3cc(C)ccc3F)cc2)ccn1` [APS4-35-1, 4-(4-(3-(2-Fluoro-5-methylphenyl)ureido)phenoxy)-N-methylpicolinamide] the “rescue of ptc>dRet^M955T viability, in words” value (“rescue … in words” for short) (ptc>dRet^M955T flies [3]) was “poor whole animal activity relative to LS1-15; also recorded: reduced rescue”.
For `CNC(=O)c1cc(Oc2ccc(NC(=O)Nc3cc(C(F)F)ccc3F)cc2)ccn1` [APS4-54, 4-(4-(3-(5-(Difluoromethyl)-2-fluorophenyl)ureido)phenoxy)-N-methylpicolinamide], the “rescue … in words” value (ptc>dRet^M955T flies [3]) was “poor whole animal activity relative to LS1-15; also recorded: reduced rescue”.
For `CNC(=O)c1cc(Oc2ccc(NC(=O)Nc3cc(C(F)(F)C(F)(F)F)ccc3F)cc2)ccn1` [APS5-16-2, 4-(4-(3-(2-Fluoro-5-(perfluoroethyl)phenyl)ureido)phenoxy)-N-methylpicolinamide], the “effect of reduced Lk6 on suppression of cell migration by compound” value (“effect of reduced Lk6” below) [2] was “not affected”, the “ectopic wing venation in 765>dRet^M955T flies” value (765>dRet^M955T flies) was “exclusively suppressed wing venation; also recorded: failed to promote ectopic wing venation” and the “rescue … in words” value (ptc>dRet^M955T flies [3]) was “significant rescue; also recorded: strongly increased overall ptc>dRet^M955T survival beyond LS1-15”. The “BRAF binding, in words” value (human BRAF) was “significantly reduced BRAF binding”, the “RET binding / inhibition, in words” value (human RET) was “retaining RET inhibition” and the “MKNK1 binding, in words” value (MKNK1) was “significantly reduced MKNK1 binding”. For the same molecule, the MTC colony formation (TT human MTC cells) was “Suppression of MTC colony formation”.
In the case of `CNC(=O)c1cc(Oc2ccc(NC(=O)Nc3cc(C(F)(C(F)(F)F)C(F)(F)F)ccc3F)cc2)ccn1` [APS6-45, 4-(4-(3-(2-Fluoro-5-(perfluoropropan-2-yl)phenyl)ureido)phenoxy)-N-methylpicolinamide], the “effect of reduced Lk6” value [2] is reported as “not affected”, the rough eye phenotype (ptc>dRet^M955T flies [1]) is reported as “strongly suppressed; also recorded: strongly rescued the rough eye phenotype” and the treatment-related clinical signs [4] is reported as “No treatment-related clinical signs were observed”. The “ectopic wing venation in 765>dRet^M955T flies” value (765>dRet^M955T flies) was “exclusively suppressed wing venation; also recorded: failed to promote ectopic wing venation”, the “rescue … in words” value (ptc>dRet^M955T flies [3]) was “strongest efficacy; also recorded: strongly increased overall ptc>dRet^M955T survival beyond LS1-15” and the “rescue of ptc>dRet^M955T flies (rescued adults / total pupae, viability)” value (ptc>dRet^M955T flies [3]; optimal doses) was 84%. The “BRAF binding, in words” value (human BRAF) was “significantly reduced BRAF binding”, the “RET binding / inhibition, in words” value (human RET) was “retaining RET inhibition; also recorded: lower activity; also recorded: weakest RET binding” and the “MKNK1 binding, in words” value (MKNK1) was “only a small decrease”. The “TT cell tumor growth in nude mice” value (TT cell tumors) was “Suppression of TT cell growth in vivo”, the mouse body weight (TT cell tumors; xenograft study) was “no effect” and the “activity against oncogenic RET, in words” value (RET(M918T)) was “lower activity”. The “signs of clinical distress (weight loss, discharges, morbidity)” value (toleration assay in mice) was “no such signs were observed” and the MTC colony formation (TT human MTC cells) was “Suppression of MTC colony formation”.
With `CNC(=O)c1cc(Oc2ccc(NC(=O)Nc3cccc(C(F)(F)F)c3)cc2)ccn1` [LS1-11-2, N-Methyl-4-(4-(3-(3-(trifluoromethyl)phenyl)ureido)phenoxy)picolinamide] the “rescue … in words” value (ptc>dRet^M955T flies [3]) was “reduced survival”.
In the case of `CNC(=O)c1cc(Oc2ccc(NC(=O)Nc3cc(C(F)(F)F)ccc3F)cc2)ccn1` [LS1-15, 4-(4-(3-(2-Fluoro-5-(trifluoromethyl)phenyl)ureido)phenoxy)-N-methylpicolinamide], the “effect of reduced Lk6” value [2] is reported as “reversed suppression”, the “ptc>dRet^M955T-mediated EMT and cell migration/invasion” value [2] is reported as “strongly suppressed” and the “inhibition of EPH kinase activity” value (EPH) is reported as “inhibit”. For the same molecule, the “wing venation at higher concentrations” value (765>dRet^M955T flies; higher concentrations / high doses that rescue ptc>dRet^M955T viability) was “suppressed venation; also recorded: did not promote ectopic wing venation”, the “wing venation at low dose” value (765>dRet^M955T flies; low dose (10 μM)) was “enhanced venation; also recorded: stimulated significant excess wing vein material” and the “rescue … in words” value (ptc>dRet^M955T flies [3]) was “rescued viability significantly better than sorafenib; also recorded: most effective in rescuing lethality”. The “BRAF binding, in words” value (human BRAF) was “significant binding”, the “viability of drug-treated ptc>dRet^M955T flies (kinase-proficient control)” value (ptc>dRet^M955T flies [5]; 23° C.) was about 50% and the “survival to adulthood of ptc>dRet^M955T, Lk6^−/+ flies” value (ptc>dRet^M955T flies [5]; one active allele of Lk6 removed, in the presence of drug) was 0%. The “viability of ptc>dRet^M955T, phl^−/+ flies” value (ptc>dRet^M955T flies [5]; phl (Raf ortholog) heterozygous, in the presence of drug) was 96% and the “inhibition of FRK kinase activity” value (FRK) was “inhibit”.
For `CNC(=O)c1cc(Oc2ccc(NC(=O)c3ccc(Cl)c(C(F)(F)F)c3)cc2)ccn1` [LS1-37, 4-(4-(4-Chloro-3-(trifluoromethyl)benzamido)phenoxy)-N-methylpicolinamide], the “ptc>dRet^M955T-mediated EMT and cell migration/invasion” value [2] was “worsened cell migration” and the whole body toxicity (non-oncogenic w^- flies) was “toxic”.
In the case of `CNC(=O)c1cc(Oc2ccc(NC(=O)Nc3ccc(Cl)c(C(F)(F)F)c3)c(F)c2)ccn1` [regorafenib, 4-(4-(3-(4-Chloro-3-(trifluoromethyl)phenyl)ureido)-3-fluorophenoxy)-N-methylpicolinamide, reference compound], the “rescue … in words” value (ptc>dRet^M955T flies [3]) is reported as “weak efficacy”.
